From EP0015615A1, “Phenyl piperazine derivatives, their preparation and antiagressive medicines containing them” (DUPHAR INTERNATIONAL RESEARCH B.V, priority 1979, dated 1980)

tested on: fighting behaviour of isolated mice; assay: test on antiagressive activity in isolated mice; format: in vivo; details: Mus musculus, po, 1 h; male albino mice kept isolated for 4 weeks; administered orally; fighting behaviour evaluated sixty minutes after administration; 5 mice per dose
Description: The ED50-values mentioned in the table were determined in a test on antiagressive activity in isolated mice (Advances in Pharmacol. 5, (1967), 79). In this test, male albino mice were kept isolated for a period of 4 weeks and then selected for the test on the basis of fighting behaviour present. The selection criterion is the occurrence of 3 or more fighting periods within 3 minutes after a mouse which has not been kept isolated has been placed in the cage of the mouse kept isolated. The compounds to be investigated were administered orally to the selected mice. Per dose 5 mice were used. Sixty minutes after the administration of the compound to be investigated the animals were evaluated again for fighting behaviour. […] The ED50-value in mg of active substance per kg of body weight was calculated from the results obtained.

| SMILES | ED50 [mg/kg] |
| --- | --- |
| CC(=O)NCCN1CCN(c2ccccc2Cl)CC1 [US pat. spec. 2.833.770, reference compound] | 18 |
| NC(=O)NCCN1CCN(c2cccc(C(F)(F)F)c2)CC1 [R4=NH2, R5=H, R6=3-CF3, T=O, m=0, p=2, 1-[2-(N-aminocarbonylamino)ethyl]-4-(3-trifluoromethylphenyl) piperazine] | 1.3 |
| NC(=O)NC(=O)NCCN1CCN(c2cccc(C(F)(F)F)c2)CC1 [1 [-2-(N-allophanoylamino)ethyl]-4-(3-trifluoromethylphenyl)piperazine] | 1.5 |
| CC(=O)NCCN1CCN(c2cccc(Cl)c2)CC1 [R4=CH3, R5=H, R6=3-Cl, T=O, m=0, p=2, 1-[2-(N-acetylamino)ethyl]-4-(3-chlorophenyl)piperazine] | 1.8 |
| CCN(CCN1CCN(c2cccc(C(F)(F)F)c2)CC1)C(C)=O [R4=CH3, R5=C2H5, R6=3-CF3, T=O, m=0, p=2, 1-[2-(N-acetyl-N-ethylamino)ethyl]-4-(3-trifluoromethylphenyl) piperazine] | 3.2 |
| COC(=O)NCCN1CCN(c2cccc(C(F)(F)F)c2)CC1.Cl [R4=CH3O, R5=H, R6=3-CF3, T=O, m=0, p=2, 1-[2-(N-methoxycarbonylamino)ethyl]-4-(3-trifluoromethylphenyl) piperazine hydrochloride] | 0.6 |
| CC(=S)NCCN1CCN(c2cccc(C(F)(F)F)c2)CC1.Cl [R4=CH3, R5=H, R6=3-CF3, T=S, m=0, p=2, 1-[2-(N-thioacetylamino)ethyl]-4-(3-trifluoromethylphenyl)piperazine hydrochloride] | 1.6 |
| CC(=O)N(C)CCN1CCN(c2cccc(C(F)(F)F)c2)CC1.Cl [R4=CH3, R5=CH3, R6=3-CF3, T=O, m=0, p=2, 1-[2-(N-acetyl-N-methylamino)ethyl]-4-(3-trifluoromethylphenyl) piperazine hydrochloride (1:1)] | 0.9 |
| NC(=O)NC(=O)NCCN1CCN(c2cccc(Cl)c2)CC1 [R4=NH2CONH, R5=H, R6=3-Cl, T=O, m=0, p=2] | 2.3 |
| Cl.O=CNCCN1CCN(c2cccc(C(F)(F)F)c2)CC1 [R4=H, R5=H, R6=3-CF3, T=O, m=0, p=2, 1-[2-(N-formylamino)ethyl] -4-(3-trifluoromethylphenyl)piperazine hydrochloride] | 1.7 |
| CC(=O)NCC[N+]1([O-])CCN(c2cccc(C(F)(F)F)c2)CC1 [R4=CH3, R5=H, R6=3-CF3, T=O, m=1, p=2, 1-[2-(N-acetylamino)ethyl]-4-(3-trifluoromethylphenyl)piperazine 1-oxide] | 1.5 |
| NC(=O)NCCN1CCN(c2cccc(Cl)c2)CC1 [R4=NH2, R5=H, R6=3-Cl, T=O, m=0, p=2, 1-[2-(N-aminocarbonylamino)ethyl]-4-(3-chlorophenyl)piperazine] | 2.3 |
| CC(=O)NCCN1CCN(c2cccc(Br)c2)CC1 [R4=CH3, R5=H, R6=3-Br, T=O, m=0, p=2, 1-[2-(N-acetylamino)ethyl]-4-(3-bromophenyl)piperazine] | 2.6 |
| CC(=O)NCCN1CCN(c2ccccc2)CC1 [US pat. spec. 2.722.529 ex.12, reference compound] | 15 |
| O=CNCCN1CCN(c2cccc(Cl)c2)CC1 [R4=H, R5=H, R6=3-Cl, T=O, m=0, p=2, 1-[2-(N-formylamino)ethyl]-4-(3-chlorophenyl)piperazine] | 1.5 |
| NC(=O)NCC[N+]1([O-])CCN(c2cccc(C(F)(F)F)c2)CC1 [R4=NH2, R5=H, R6=3-CF3, T=O, m=1, p=2, 1-[2-(N-aminocarbonylamino)ethyl]-4-(3-trifluoromethylphenyl) piperazine 1-oxide] | 1.9 |
| CC(=O)NCCN1CCN(c2cccc(C(F)(F)F)c2)CC1 [R4=CH3, R5=H, R6=3-CF3, T=O, m=0, p=2, 1-[2-(N-acetylamino)ethyl]-4-(3-trifluoromethylphenyl)piperazine] | 0.7 |
| COC(=O)NCCN1CCN(c2cccc(Cl)c2)CC1.Cl.Cl [R4=CH3O, R5=H, R6=3-Cl, T=O, m=0, p=2, 1-[2-(N-methoxycarbonylamino)ethyl]-4-(3-chlorophenyl)piperazine dihydrochloride] | 3.5 |
